Laboratory results reported in ChEMBL document CHEMBL2151015, “Discovery of a potent, selective, and orally bioavailable acidic 11β-hydroxysteroid dehydrogenase type 1 (11β-HSD1) inhibitor: discovery of 2-[(3S)-1-[5-(cyclohexylcarbamoyl)-6-propylsulfanylpyridin-2-yl]-3-piperidyl]acetic acid (AZD4017)” (J Med Chem, 2012).
In brackets after ≈: the same amount, converted by molar mass.

Tests used:
[1] = Octanol-buffer partition coefficient, log D of the compound after 30 mins by shake flask method at pH 7.4
[2] = Intrinsic clearance in rat hepatocytes assessed per 10^6 cells
[3] = Fraction unbound in rat plasma after 18 to 19 hrs by equilibrium dialysis; assay type: ADME, cell-free
[4] = Oral bioavailability in rat; assay type: ADME, organism-based; settings: in vivo
[5] = in vivo; settings: rat
[6] = target: 11-beta-hydroxysteroid dehydrogenase 1 (Homo sapiens, UniProt P28845); test: biochemical
Description: Inhibition of N-terminal His6-tagged full length human 11betaHSD1 expressed in baculovirus infected cells using cortisone as substrate after 25 mins by HTRF assay

[7] = Aqueous solubility of the compound after 24 hrs by LC-UV analysis at pH 7.4; assay type: physicochemical; settings: aqueous medium
[8] = Cmax in po dosed Sprague-Dawley rat measured up to 24 hrs; assay type: ADME, organism-based; parameters: route oral; settings: in vivo
[9] = AUC (0 to t) in po dosed Sprague-Dawley rat pre-dosed with ABT administered 2 hrs […] measured up to 24 hrs; assay type: ADME, organism-based; parameters: time < 24 hr, route oral; settings: plasma
[10] = Apparent permeability across human Caco2 cells; assay type: ADME, cell-based; settings: Caco-2
[11] = Cmax in po dosed Sprague-Dawley rat pre-dosed with ABT administered 2 hrs […] measured up to 24 hrs; assay type: ADME, organism-based; parameters: route oral; settings: in vivo
[12] = AUC (0 to t) in po dosed Sprague-Dawley rat measured up to 24 hrs; assay type: ADME, organism-based; parameters: time < 24 hr, route oral; settings: plasma
[13] = Clearance in po dosed Sprague-Dawley rat pre-dosed with ABT administered 2 hrs prior to ABT administration measured up to 24 hrs; settings: in vivo
[14] = Clearance in po dosed Sprague-Dawley rat measured up to 24 hrs; settings: in vivo

Sequence of 11-beta-hydroxysteroid dehydrogenase 1 (P28845 whole entry): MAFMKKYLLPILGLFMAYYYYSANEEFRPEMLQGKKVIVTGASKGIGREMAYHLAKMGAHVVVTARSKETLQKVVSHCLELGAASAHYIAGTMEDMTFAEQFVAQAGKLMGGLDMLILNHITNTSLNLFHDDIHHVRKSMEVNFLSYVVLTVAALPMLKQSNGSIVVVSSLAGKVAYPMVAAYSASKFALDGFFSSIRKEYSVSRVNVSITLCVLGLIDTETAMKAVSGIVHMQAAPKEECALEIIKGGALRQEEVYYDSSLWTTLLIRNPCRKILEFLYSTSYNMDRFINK

logD at 0.5 h ([1]; octanol/buffer)	hepatocyte CLint [2] [µL/min/1e6 cells]	fraction unbound [3]	bioavailability [4] [%]	clearance [5] [mL/min/kg]	SMILES	also measured
1.8	< 2	0.003			CCCSc1nc(Oc2ccc(CC(=O)O)cc2)ccc1C(=O)NC1CCCCC1	
2.3	7	0.029	72	4	CCCNc1nc(N2CCC[C@@H](CC(=O)O)C2)ccc1C(=O)NC1CCCCC1	
	< 2	0.03	> 100	8	CCCSc1nc(N2CCC(C(=O)O)CC2)ccc1C(=O)NC1CCCCC1	logD at 0.5 h ([1]; octanol/water): 1.6
2	6	0.032	90	4	CCCSc1nc(N2CCC(CC(=O)O)CC2)ccc1C(=O)NC1CCCCC1	
2	120	0.13	0	39	CCCSc1ncccc1C(=O)N1CCCC1c1ccncc1 (stereo not given)	
1.4	10	0.019	> 100	12	CCCSc1nc(N2CCCCC2C(=O)O)ccc1C(=O)NC1CCCCC1 (stereo not given)	
2.3	49	> 0.5	11	110	CCCSc1ncccc1C(=O)N[C@@H]1[C@@H]2CC3C[C@H]1C[C@@](O)(C3)C2	
2.8	9	0.006	> 100	9	CCCOc1nc(N2CCC[C@@H](CC(=O)O)C2)ccc1C(=O)NC1CCCCC1	
	140	0.41			CCCSc1ncccc1C(=O)N(C)[C@H]1[C@@H]2CC3C[C@H]1C[C@@](O)(C3)C2	logD at 0.5 h ([1]; octanol/water): 2.5
	140	0.2	0	24	CCCSc1ncccc1C(=O)N(C)[C@@H]1[C@@H]2CC3C[C@H]1C[C@@](O)(C3)C2	logD at 0.5 h ([1]; octanol/water): 2.5
	< 2	0.029	> 100	6	CCCSc1nc(N[C@H]2CC[C@H](C(=O)O)CC2)ccc1C(=O)NC1CCCCC1	
1.6	90	0.49	0	46	CCCSc1ncccc1C(=O)N(C)C1CCOCC1	
2.6	8	0.015	81	8	CCCSc1nc(NC[C@H]2CC[C@H](C(=O)O)CC2)ccc1C(=O)NC1CCCCC1	
< 0.5	< 2	0.41	81	2.5	CCCSc1ncccc1C(=O)N[C@H]1CC[C@@H](C(=O)O)CC1	IC50 [6]: > 30 µM
3.4	> 350	0.1	0	48	CCCSc1ncccc1C(=O)N(C)C1CCCCC1	
1.7	15	0.006			CCCSc1nc(Oc2cccc(CCC(=O)O)c2)ccc1C(=O)NC1CCCCC1	
1.7	6	0.023	45	4	CCCSc1nc(N2CCCC(C(=O)O)C2)ccc1C(=O)NC1CCCCC1 (stereo not given)	
3.2		0.13	0		CCCSc1ncccc1C(=O)NC1CCCCC1	solubility at 24 h [7]: 82 µM (≈ 22.8 µg/mL); Cmax [8]: 39 ng/mL; AUC(0-t) at 24 h [9]: 2510 ng·h/mL; Papp [10]: 27 ×10⁻⁶ cm/s; Cmax [11]: 514 ng/mL; AUC(0-t) at 24 h [12]: 80 ng·h/mL
	12	0.018	39	15	CCCN(C)c1nc(N2CCC[C@@H](CC(=O)O)C2)ccc1C(=O)NC1CCCCC1	logD at 0.5 h ([1]; octanol/water): 2.3
	130	0.29	0	30	CCCSc1ncccc1C(=O)NC1CCC(F)(F)CC1	
2.2	8	0.006	79	1	CCCSc1nc(N2CCC[C@H](CC(=O)O)C2)ccc1C(=O)NC1CCCCC1	
1.6	< 2	0.06	57	4	CCCCc1nc(N2CCC[C@@H](CC(=O)O)C2)ccc1C(=O)NC1CCCCC1	
3.9	272	0.005	0		O=S(=O)(Cc1c(F)cccc1F)N1CCN(c2ncccc2C(F)(F)F)CC1	solubility at 24 h [7]: 2 µM (≈ 0.843 µg/mL); CL/F [13]: 14 mL/min/kg; CL/F at 24 h [14]: 20 mL/min/kg; Papp [10]: 10 ×10⁻⁶ cm/s
